From patent publication US20240099298A1, “BIOINSECTICIDAL COMPOSITIONS CONTAINING MONOTERPENES AND METHODS OF USE THEREOF” (priority 2017, published 2024)
≈ marks a conversion by molar mass, not a printed value.

Tests used:
housefly adults = settings: cited from earlier work
[1] = target: T1, recombinant gamma-aminobutyric acid receptor-associated protein (rGABARAP) (Frankliniella occidentalis, UniProt A0A6J1T1Q2); experiment: Microscale thermophoresis (MST) binding to rGABARAP; settings: rGABARAP; read-out: Kd value, MST
T1 sequence (A0A6J1T1Q2 1-118): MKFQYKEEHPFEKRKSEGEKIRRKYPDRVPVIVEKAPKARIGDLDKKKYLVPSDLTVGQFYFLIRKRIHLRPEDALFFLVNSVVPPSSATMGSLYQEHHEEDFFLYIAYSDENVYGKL
Source text: (§1) Preparation of recombinant GABARAP (rGABARAP) protein. RNA was extracted from F. occidentalis and cDNA was then synthesized. GABARAP (GenBank accession No. LOC113211372) was obtained after PCR amplification (Stafford-Banks, et al. (2014) Plos One 9:e94447).
(§2) Interaction between ME and rGABARAP. A Nano Temper Monolith NT.115 MST system (Nano Temper, Munich, Germany) was used to assess the binding affinities between the target compounds and rGABARAP according to the published procedures (Zan, et al. (2020) Journal of Agricultural and Food Chemistry 68:6280-6285). Spinosyn A was used as a chemical positive control. Spinosyn A (≥1 nM) can trigger a change of the Cl^− current of insect neuron GABAAR, which is considered to be an insecticidal action mechanism of spinosyn A (Watson (2001) Pesticide Biochemistry and Physiology 71:20-28). Ovalbumin (OVA) (Sangon Biotech, Shanghai, China) is a control protein consisting of 385 amino acid residues. The interaction between OVA and ME was used as a protein control experiment (Huntington, et al. (1995) Protein Science 4:613-621).

[2] = target: T1, recombinant gamma-aminobutyric acid receptor-associated protein (rGABARAP); experiment: Isothermal titration calorimetry (ITC) binding to rGABARAP; settings: 25° C., pH 7.4
Description: as §1
(§3) The isothermal titration thermal binding measurements were performed with an ITC-200 calorimeter (GE Healthcare, Boston, MA) at 25° C. in a buffer containing 50 mM Tris-HCl and 100 mM NaCl (pH 7.4). […] The MicroCal Origin 7.0 software system was used for data processing. The first run was a pre-run and was excluded from the final data. The amount of protein in the sample pool was constant. […] The experimental bimolecular interaction data from the 18 drops were used to calculate the dissociation constant. The dissociation constant […] was calculated as 1/K (Li, et al. (2018) RSC Advances 8:18952-18958).

rGABARAP^Y174A [3] = target: T2, rGABARAP^Y174A (Frankliniella occidentalis, UniProt A0A6J1T1Q2); experiment: MST binding to rGABARAP mutant
T2 sequence (A0A6J1T1Q2 entry or part of it, stated change not applied): as the sequence (A0A6J1T1Q2 1-118) above
Description: as §2
(§4) Preparation of rGABARAP Mutant and Interaction Between ME and rGABARAP Mutant. […] DNAman was used to convert the nucleic acid sequence into an amino acid sequence and find the Y174 site. Y174 was mutated to A174. The rGABARAP mutant gene loaded into the pMCSG19 vector and the His tags at both ends of the sequence were retained to construct a prokaryotic expression plasmid. The carrier contained a maltose binding protein (MBP) tag that was not cut for verification. However, MBP and ME were used as treatment controls. The mutant plasmid was constructed in Sangon Biotech (Shanghai, China). The protein expression, purification, and desalting procedures of rGABARAP^Y174A mutant and rGABARAP were the same. Subsequently, the binding kinetics of ME and rGABARAP^Y174A were tested by MST and ITC.

rGABARAP^Y174A [4] = target: T2, rGABARAP^Y174A; experiment: ITC binding to rGABARAP mutant
Description: as §3, §4

[5] = system: Megalurothrips usitatus (Bagrall) (thrips); experiment: Median lethal concentration fumigation test, thrips; settings: adult thrips, exposed one hour, mortality observed in 24 hours
Source text: (§5) Median Lethal Concentration Tests. […] The species tested included Thrips (M. usitatus), spider mite (T. cinnabarinus), melon fly (B. cucuribitae), cockroach (B. lateralis), housefly (M. domestica), mosquito (A. aegypti), parasitic wasp (T. chilonis) and fruit fly (Drosophila melanogaster). After being exposed to the test chemicals for one hour, adult Thrips, spider mites, and roaches were transferred to another flask. In addition to fresh water, adult Thrips, spider mites, and roaches were then respectively fed with cowpea, fresh blade of eggplant, and peanut oil via filter. […] Mortality of melon fly was observed after three hours of exposure.

[6] = system: Aedes aegypti (Linnaeus) (mosquito); settings: adult mosquito, exposed 30 minutes, mortality in 24 hours
Source text: as §5

[7] = system: Bactrocera cucuribitae (Coquillett) (melon fly); settings: melon fly
Source text: as §5

[8] = system: Blatta lateralis (Walker) (cockroach); settings: cockroach second instar nymphs, exposed one hour
Source text: as §5

[9] = system: Musca domestica (Linnaeus) (housefly); settings: adult housefly, exposed one hour, mortality in 24 hours
Source text: as §5

[10] = system: Tetranychus cinnabarinus (Boisduval) (spider mites); settings: spider mites, exposed one hour
Source text: as §5

[11] = system: Drosophila melanogaster (fruit fly); experiment: Median lethal concentration fumigation test, fruit fly; type: in vivo; settings: mortality after 280 minutes
[12] = system: B. cucuribitae (melon fly); experiment: Median lethal time (LT50) test, melon fly; type: in vivo, Bactrocera cucuribitae
Source text: (§6) All treatments and controls were in triplicate.
(§7) Toxicity of Monoterpenes as Fumigants. […] Therefore, to determine how fast the monoterpenes act as fumigants, it was necessary to determine their LT50 values for the target organisms.

[13] = system: T. castaneum (red flour beetle); experiment: Median lethal time (LT50) test, red flour beetle; type: in vivo, Tribolium castaneum
Source text: as §6, §7

Aedes aegypti (mosquito) = experiment: Median knockdown concentration (KC50) test, mosquito; type: in vivo; settings: 30 Minutes
Source text: as §6
(§8) Knockdown Activity of Monoterpenes.

[14] = system: Musca domestica (housefly); experiment: Median knockdown concentration (KC50) test, housefly; type: in vivo; settings: Musca domestica
Source text: as §6, §8

[15] = system: T. chilonis (parasitic wasp); settings: non-target parasitic wasp, mortality after 15 minutes of exposure
Source text: (§9) Insect Egg Parasitic Wasp (Natural Enemy). […] Both species were purchased from a commercial source. One- to two-day-old adults (after eclosion) were used for fumigation tests.
as §5

[16] = system: A. japonicus (parasitic wasp); experiment: Median lethal time (LT50) test, parasitic wasp (natural enemy); settings: non-target parasitic wasp
Description: as §9
Median Lethal Time (LT50) and Median Knockdown Concentration (KC50) Tests. Five species of adult insects or natural enemies were tested for LT50 values including melon fly (B. cucuribitae), red flour beetle (T. castaneum), Nitidulidae beetle (H. picinus), parasitic wasp (A. japonicus) and housefly (M. domestica). For each treatment and control, 20 insects at the developmental stages described above were placed individually without food in a 1-L wide-mouth glass bottle (height 19.5 cm, bottom diameter 10.5 cm, mouth i.d. 5.5 cm) containing pieces of tissue paper. […] Five different concentrations of the test chemicals were placed on pieces of cellulose-based qualitative filter paper. Each of the filter papers was placed in a bottle to have 5 appropriate concentrations in serial dilutions. DDVP was the positive control, and no chemical treatments were the negative control. All treatments and controls were in triplicate. Mortality was observed periodically in a 10-30 minute interval for 2 days or until all insects died. The death was defined as no movement when the insects were touched.

[17] = T 25 °C; cited from earlier work
adult T. palmi = settings: cited from earlier work
[18] = system: Megalurothrips usitatus (flower Thrips); settings: adult M. usitatus, 24 hours of fumigation in 1-L flasks

CC(C)[C@@H]1CC[C@@H](C)CC1=O [menthone]
repellent activity (housefly adults): 83%

C/C=C/c1ccc(OC)cc1 [Anethole, 1-(4-methoxyphenyl) -1-propen]
Kd [1]: 1.61 µM
Kd [2]: 4.49 µM
Kd (rGABARAP^Y174A [3]; read-out: Kd value, MST): 41 ± 36.4 µM
Kd value, ITC (rGABARAP^Y174A [4]): No binding

COP(=O)(OC)OC=C(Cl)Cl [DDVP 80%, 2,2-Dichlorovinyl dimethyl phosphate, reference compound]
LC90 (fiducial limits) [5]: 1850 ng/mL
LC90 (fiducial limits) [6]: 2.8 ng/mL
LC90 (fiducial limits) [7]: 1.4 ng/mL
LC90 (fiducial limits) [8]: 9510 ng/mL
LC90 (fiducial limits) [9]: 530 ng/mL
LC90 (fiducial limits) [10]: 800 ng/mL
LC90 (fiducial limits) [11]: 0.002 ng/mL
LT50 (fiducial limits) [12]: 0.89 h
LT50 (fiducial limits) [13]: 2.70 h
KC50 (fiducial limits) (Aedes aegypti (mosquito)): >0.081 µg/mL
KC50 (fiducial limits) ([14]; 20 Minutes): >2.7 µg/mL
KC50 (fiducial limits) ([14]; 30 Minutes): >2.7 µg/mL
LC90 (fiducial limits) against T. chilonis [15]: >3750 ng/mL
LT50 (fiducial limits) against A. japonicus [16]: 0.41 (0.07-0.49) hour

CC1CCC(C(C)C)C(O)C1 (stereo not drawn) [menthol]
repellent activity (housefly adults): 96%

CC12CCC(CC1)C(C)(C)O2 [1,8-Cineole]
Vp (Pa)/T (° C.) [17]: 253.31/25 Pa
LC50, fumigation toxicity (adult T. palmi): 16700 ng/mL (≈ 108 µM)

C=CCc1ccc(OC)c(OC)c1 [Eugenol methyl ether, 1-(3,4-dimethoxyphenyl) -2-propene]
Kd [1]: 1.3 µM
Kd [2]: 4.22 µM
Kd value, MST (rGABARAP^Y174A [3]): loss of binding
Kd value, ITC (rGABARAP^Y174A [4]): neither MBP nor ME interacted
activity against flower Thrips in preliminary screening [18]: exhibit insecticidal activity
